From patent US20090247624A1, “FORMULATIONS OF RADIOPROTECTIVE ALPHA BETA UNSATURATED ARYL SULFONES” (Onconova Therapeutics Inc., priority 2006, published 2009)

What was measured:
HFL-1 cells = test: Radioprotective effects on cultured normal cells (colony count); assay type: cell-based, human; conditions: 2.5 to 20 micromolar for 24 hrs before 10 Gy or 15 Gy; colonies on test plates / control plates
Protocol: HFL-1 cells, which are normal diploid lung fibroblasts, were plated into 24 well dishes at a cell density of 3000 cells per 10 mm^2 in DMEM completed with 10% fetal bovine serum and antibiotics. The test compounds listed in Table 11 were added to the cells 24 hours later in select concentrations from 2.5 to 20 micromolar, inclusive, using DMSO as a solvent. Control cells were treated with DMSO alone. The cells were exposed to the test compound or DMSO for 24 hrs. The cells were then irradiated with either 10 Gy (gray) or 15 Gy of ionizing radiation (IR) using a J. L. Shepherd Mark I, Model 30-1 Irradiator equipped with ^137cesium as a source.
After irradiation, the medium on the test and control cells was removed and replaced with fresh growth medium without the test compounds or DMSO. The irradiated cells were incubated for 96 hours and duplicate wells were trypsinized and replated onto 100 mm^2 tissue culture dishes. The replated cells were grown under normal conditions with one change of fresh medium for 3 weeks. The number of colonies from each 100 mm^2 culture dish, which represents the number of surviving cells, was determined by staining the dishes as described below.
To visualize and count the colonies derived from the clonal outgrowth of individual radioprotected cells, the medium was removed and the plates were washed one time with room temperature phosphate buffered saline. The cells were stained with a 1:10 diluted Modified Giemsa staining solution (Sigma) for 20 minutes. The stain was removed, and the plates were washed with tap water. The plates were air dried, the number of colonies from each plate were counted and the average from duplicate plates was determined.
A “+” indicates radioprotective activity of between 2- and 4.5-fold at the concentrations tested. Fold protection was determined by dividing the average number of colonies from the test plates by the average number of colonies on the control plates.

C57 black mice = test: Protection of mice from radiation toxicity by pre-treatment; assay type: in vivo
Protocol: C57 black mice age 10-12 weeks (Taconic) were divided into two treatment groups of 10 mice each. One group, designated the “200×2” group, received intraperitoneal injections of 200 micrograms (E)-4-carboxystyryl-4-chlorobenzylsulfone dissolved in DMSO (a 10 mg/Kg dose, based on 20 g mice) 18 and 6 hours before irradiation with 8 Gy gamma radiation. The other group, designated “500×2,” received intraperitoneal injections of 500 micrograms (E)-4-carboxystyryl-4-chlorobenzylsulfone dissolved in DMSO (a 25 mg/Kg dose, based on 20 g mice) 18 and 6 hours before irradiation with 8 Gy gamma radiation. A control group of 16 animals received 8 Gy gamma radiation alone.

[1] = room temperature; cited from earlier work
rodent species = conditions: after IP and IV administration to different rodent species; cited from earlier work
human = conditions: approximately 500 mg/kg iv continuously as 5 percent aqueous solution, one individual, four days; cited from earlier work
[2] = “200×2” group: 10 mg/Kg i.p. 18 and 6 hours before 8 Gy gamma radiation
[3] = “500×2” group: 25 mg/Kg i.p. 18 and 6 hours before 8 Gy gamma radiation

Molecule	Activity (radioprotection, fold protection) (HFL-1 cells)	also measured
(Z)-Styryl-(E)-2-methoxy-4-ethoxystyrylsulfone [Compound 11]	+ (A “+” indicates radioprotective activity of between 2- and 4.5-fold at the concentrations tested)	
(E)-4-Fluorostyryl-4-chlorophenylsulfone [Compound 10]	+ (A “+” indicates radioprotective activity of between 2- and 4.5-fold at the concentrations tested)	
(E)-4-Fluorostyryl-4-trifluoromethylbenzylsulfone [Compound 5]	+ (A “+” indicates radioprotective activity of between 2- and 4.5-fold at the concentrations tested)	
O=C(O)c1ccc(/C=C/S(=O)(=O)Cc2ccc(Cl)cc2)cc1 [Compound 13, (E)-4-Carboxystyryl-4-chlorobenzylsulfone]	+ (A “+” indicates radioprotective activity of between 2- and 4.5-fold at the concentrations tested)	maximum mortality rate by day 40 (C57 black mice; [2]): approximately 60%; mice dead at day 20 (C57 black mice; [2]): about 50%; maximum mortality rate by day 40 (C57 black mice; [3]): about 50%; mice dead at day 20 (C57 black mice; [3]): about 30%
(E)-2,4,6-Trimethoxystyryl-4-methoxybenzylsulfone [Compound 2]	+ (A “+” indicates radioprotective activity of between 2- and 4.5-fold at the concentrations tested)	
O=S(=O)(/C=C/c1ccoc1)Cc1ccc(Cl)cc1Cl [Compound 8, (E)-3-Furanethenyl-2,4-dichlorobenzylsulfone]	+ (A “+” indicates radioprotective activity of between 2- and 4.5-fold at the concentrations tested)	
O=S(=O)(/C=C\c1ccc(F)cc1)Cc1ccc(Cl)cc1 [Compound 7, (Z)-4-Fluorostyryl-4-chlorobenzylsulfone]	+ (A “+” indicates radioprotective activity of between 2- and 4.5-fold at the concentrations tested)	
(E)-4-Fluorostyryl-4-cyanobenzylsulfone [Compound 6]	+ (A “+” indicates radioprotective activity of between 2- and 4.5-fold at the concentrations tested)	
O=S(=O)(/C=C/c1ccc(F)cc1)Cc1ccc(Cl)cc1 [Compound 1, (E)-4-Fluorostyryl-4-chlorobenzylsulfone]	+ (A “+” indicates radioprotective activity of between 2- and 4.5-fold at the concentrations tested)	
Hydroxypropyl-B-Cyclodextrin [HPCD]		solubility in water [1]: greater than 500 mg/ml; toxicity (rodent species): non-toxic; adverse clinical effects (human): no adverse clinical effects were reported
